Literature values as cited in patent publication US20230329971A1, “MEDICINAL PRODUCT COMPRISING A FLEXIBLE PLASTIC BAG AND AN AQUEOUS, READY-TO-USE SOLUTION OF MIDAZOLAM” (B. Braun Melsungen AG, priority 2020, published 2023).

Settings: in aqueous 5% dextrose solution or aqueous 0.9% sodium chloride solution

## Cc1ncc2n1-c1ccc(Cl)cc1C(c1ccccc1F)=NC2.Cl [midazolam hydrochloride, 8-chloro-6-(2-fluorophenyl)-1-methyl-4H-imidazo [1,5-a] [1, 4] benzodiazepine hydrochloride]
  stable over: 30 days
